What is called EC50 is the concentration needed to bring the measured effect to its halfway point.

Results on 14 compounds are retold here after ChEMBL document CHEMBL6103606, “AMP-Activated Protein Kinase Activators as Therapeutic Targets To Treat Heart Failure and Diseases That Can Benefit from Improved Muscular Performance” (ACS Med Chem Lett, 2025).

Assay [1] addresses AMPK alpha2/beta2/gamma3 (Homo sapiens) (UniProt P54646+O43741+Q9UGI9). The experiment in a line: Activation of human AMPK alpha2/beta2/gamma3 transiently transfected in HEK293 cells assessed as phosphorylation at […]Thr172 by measuring asymptotic max incubated for 20 mins by AlphaLISA assay relative to control. Type of assay: cell-based. In general terms: Alpha assays give light when donor and acceptor beads are brought close together.

In the next assay the target is AMPK alpha2/beta2/gamma3 (Homo sapiens, UniProt O43741+P54646+Q9UGI9). The experiment in a line: Activation of human AMPK (alpha2/beta2/gamma3) transiently transfected in HEK293 cells assessed as phosphorylation at […]Thr172 incubated for 20 mins by AlphaLISA assay. Type of assay: cell-based.
Chain of AMPK alpha2/beta2/gamma3 (P54646 whole entry): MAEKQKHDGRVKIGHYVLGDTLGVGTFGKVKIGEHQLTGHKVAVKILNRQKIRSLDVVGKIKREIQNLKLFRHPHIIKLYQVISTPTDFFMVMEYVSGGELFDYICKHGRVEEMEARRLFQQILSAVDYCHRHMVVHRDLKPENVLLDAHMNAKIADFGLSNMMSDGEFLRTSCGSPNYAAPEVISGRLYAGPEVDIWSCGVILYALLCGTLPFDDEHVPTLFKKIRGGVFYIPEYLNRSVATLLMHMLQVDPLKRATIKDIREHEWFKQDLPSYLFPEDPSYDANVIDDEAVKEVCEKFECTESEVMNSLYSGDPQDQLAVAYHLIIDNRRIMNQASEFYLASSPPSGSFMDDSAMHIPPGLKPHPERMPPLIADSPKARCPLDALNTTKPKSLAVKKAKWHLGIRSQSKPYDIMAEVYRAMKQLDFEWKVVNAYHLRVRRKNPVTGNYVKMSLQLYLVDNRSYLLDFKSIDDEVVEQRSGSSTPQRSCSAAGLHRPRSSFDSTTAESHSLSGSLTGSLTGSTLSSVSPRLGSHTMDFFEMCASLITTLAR
Chain of AMPK alpha2/beta2/gamma3 (O43741 whole entry): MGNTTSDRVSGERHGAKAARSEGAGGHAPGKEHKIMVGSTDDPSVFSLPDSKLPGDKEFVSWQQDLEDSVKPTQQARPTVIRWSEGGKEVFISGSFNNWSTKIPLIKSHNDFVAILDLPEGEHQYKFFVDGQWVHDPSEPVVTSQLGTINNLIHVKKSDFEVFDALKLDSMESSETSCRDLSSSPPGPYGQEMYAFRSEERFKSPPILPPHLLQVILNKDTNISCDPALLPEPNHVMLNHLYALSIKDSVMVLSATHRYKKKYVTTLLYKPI
Chain of AMPK alpha2/beta2/gamma3 (Q9UGI9 whole entry): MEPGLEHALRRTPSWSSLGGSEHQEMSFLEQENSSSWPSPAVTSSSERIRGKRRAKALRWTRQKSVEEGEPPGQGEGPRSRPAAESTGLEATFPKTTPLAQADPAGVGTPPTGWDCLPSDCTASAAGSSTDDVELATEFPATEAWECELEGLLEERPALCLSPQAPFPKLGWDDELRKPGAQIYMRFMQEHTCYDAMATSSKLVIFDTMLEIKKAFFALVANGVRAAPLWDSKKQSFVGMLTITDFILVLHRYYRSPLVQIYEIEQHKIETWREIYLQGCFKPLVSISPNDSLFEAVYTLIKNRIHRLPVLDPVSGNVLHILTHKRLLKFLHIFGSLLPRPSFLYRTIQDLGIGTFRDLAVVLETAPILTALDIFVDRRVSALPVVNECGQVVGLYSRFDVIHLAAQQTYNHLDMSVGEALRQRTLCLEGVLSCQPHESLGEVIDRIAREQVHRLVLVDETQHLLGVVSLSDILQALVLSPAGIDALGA

Chain of AMPK alpha2/beta2/gamma3 (Homo sapiens) (O43741 whole entry, looked up): as the sequence (O43741 whole entry) above
Chain of AMPK alpha2/beta2/gamma3 (Homo sapiens) (P54646 whole entry, looked up): as the sequence (P54646 whole entry) above
Chain of AMPK alpha2/beta2/gamma3 (Homo sapiens) (Q9UGI9 whole entry, looked up): as the sequence (Q9UGI9 whole entry) above

`Cn1cc(F)c(N2C[C@](C)(c3cccc(Cl)c3F)c3c(cnc(NC4CN(C(=O)CC(F)(F)F)C4)c3F)C2=O)n1`: the max activation in assay [1] (filed as activator) turned out to be 90%. For `Cn1cc(F)c(N2CC(C)(c3cccc(Cl)c3F)c3c(cnc(NC4CN([C@H]5CCCNC5=O)C4)c3F)C2=O)n1` (some centres not stated), the EC50 at AMPK alpha2/beta2/gamma3 came out at 27.2 nM. The max activation in assay [1] (filed as activator) was found to be 119%. In the case of `Cn1cc(F)c(N2C[C@](C)(c3cccc(Cl)c3F)c3c(cnc(NC4CN(C(=O)C5CCC(F)(F)CN5)C4)c3F)C2=O)n1` (some centres not stated), the max activation in assay [1] (filed as activator) worked out at 85.5%. Still for that read-out and setting: then `Cn1cc(F)c(N2C[C@](C)(c3cccc(Cl)c3F)c3c(cnc(NC4CN(C(=O)C(O)CC(F)(F)F)C4)c3F)C2=O)n1` (some centres not stated), with 100%; and `C[C@]1(c2cccc(Cl)c2F)CN(c2ccc([C@@H]3COCCN3)cn2)C(=O)c2cnc(NC3CN(C(=O)c4cccnn4)C3)c(F)c21`, with 120%; and `Cn1cc(F)c(N2CC(C)(c3cccc(Cl)c3F)c3c(cnc(N[C@@H]4CCN(C(=O)N5C[C@@H]6C[C@H]5CO6)C4)c3F)C2=O)n1` (some centres not stated), with 52.2%. On to `CN1CCCC(N2CC(Nc3ncc4c(c3F)[C@@](C)(c3cccc(Cl)c3F)CN(c3nn(C)cc3F)C4=O)C2)C1=O` (some centres not stated), for which the max activation in assay [1] (filed as activator) is 139%. As to `CNCc1ccc(N2C[C@](C)(c3cccc(Cl)c3F)c3nc(NC4CN(C(=O)[C@@H]5C[C@@H]5F)C4)ncc3C2=O)cc1F`, the EC50 at AMPK alpha2/beta2/gamma3 was 2500 nM. The max activation in assay [1] (filed as activator) is 154%.

For `Cn1cc(F)c(N2C[C@](C)(c3cccc(Cl)c3F)c3c(cnc(NC4CN(C(=O)[C@@](C)(O)C5CC5)C4)c3F)C2=O)n1`, the EC50 at AMPK alpha2/beta2/gamma3 was determined as 21.3 nM. Besides, the max activation in assay [1] (filed as activator) was found to be 89.6%. On to `Cn1cc(F)c(N2C[C@](C)(c3cccc(Cl)c3F)c3c(cnc(NC4CN(C(=O)[C@@H]5C[C@@H]5F)C4)c3F)C2=O)n1`, for which, in assay [1] (filed as activator), the max activation was 81.7%. On to `C[C@]1(c2cccc(Cl)c2F)CN(c2cc(OC(F)F)ccn2)C(=O)c2cnc(NC3CN(C(=O)[C@@H]4C[C@@H]4F)C3)c(F)c21`, for which the max activation in assay [1] amounted to 30.9%. For `CC1(c2ccc(F)c(Cl)c2F)CN(c2ccc(CO)cn2)C(=O)c2cnc(NC3CN(C(=O)N4C[C@@H]5C[C@H]4CO5)C3)c(F)c21` (some centres not stated), the max activation in assay [1] (filed as activator) is 113%.

Regarding `CC1(c2cccc(Cl)c2F)CN(c2ncccc2F)C(=O)c2cnc(NC3CN(C(=O)N4CCC[C@@H]4CO)C3)nc21` (some centres not stated), the max activation in assay [1] (filed as activator) was determined as 106%. Take `C[C@]1(c2cccc(Cl)c2F)CN(c2ncccc2F)C(=O)c2cnc(NC3CN(C(=O)C4(O)CC4)C3)c(F)c21`: the max activation in assay [1] (filed as activator) amounted to 112%.
